# According to patent US9499550B2 (BRISTOL-MYERS SQUIBB COMPANY, priority 2012, dated 2016):
# Like-named read-outs stand apart in the source and are kept apart here.
# Legend:
# [1] = tested on: HCV genotype 1b (Con1) replicon in HUH-7 cells; assay: HCV replicon luciferase reporter assay, genotype 1b; assay type: cell-based; conditions: Hepatitis C virus, Huh-7, 72 h, 3 days incubation
# Procedure, shortened: (§1)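 Replicon inhibition for both genotypes was measured as Renilla luciferase signal (EnduRen, 7.5 μM final, 2 h) after 3-day, 37° C exposure of replicon-bearing HUH-7 cells in 4% FCS DMEM, 0.5% DMSO. The 1b construct carries S1179I; the 1a H77 construct carries P1496L and S2204I. Twenty-point, 3-fold dilutions were fitted four-parametrically for EC50, and CC50 was taken from multiplexed Cell Titer-Blue.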
# [2] = tested on: HCV genotype 1a (H77 strain) replicon in HUH-7 cells; assay: HCV replicon luciferase reporter assay, genotype 1a; assay type: cell-based; conditions: Hepatitis C virus, Huh-7, 72 h, 3 days incubation
# Procedure, shortened: as §1
# [3] = GETYPE1B, HCV genotype 1b replicon luciferase, read-out: LE_1b (EC50, range)
# [4] = GETYPE1A, HCV genotype 1a replicon luciferase, read-out: LE_1a (EC50, range)
# [5] = HCV genotype 1b replicon luciferase, read-out: LE_1b (EC50, range)
# [6] = HCV genotype 1a replicon luciferase, read-out: LE_1a (EC50, range)
# [7] = HCV genotype 1b replicon luciferase assay, range class, read-out: LE_1b (EC50, range)
# [8] = HCV genotype 1a replicon luciferase assay, range class, read-out: LE_1a (EC50, range)
Structure (SMILES),"EC50 [1, 5] [nM]","EC50 [2, 6] [nM]",also measured
COc1ccc2c(O[C@@H]3C[C@H]4C(=O)N[C@]5(C(=O)NS(=O)(=O)C6(C)CC6)C[C@H]5/C=C\CC[C@@H](C)C[C@@H](C)[C@H](NC(=O)OC(C)(C)C(F)(F)F)C(=O)N4C3)cc(-c3ccc(OC(C)C)c(F)c3)nc2c1 [Compound 4247],–,–,"EC50 [1, 3]: 1.01 to 5 nM; EC50 [2, 4]: 1.01 to 5 nM"
"CC[C@@H]1C[C@H](C)CC/C=C\[C@@H]2C[C@@]2(C(=O)NS(=O)(=O)C2CC2)NC(=O)[C@@H]2C[C@@H](Oc3ncc(OC)c4ccc(F)cc34)CN2C(=O)[C@H]1NC(=O)OC(C)(C)C(C)(F)F [Compound 5469, 3,3-difluoro-2-methylbutan-2-yl((2R,6S,7R,9R,13aS,14aR,16aS,Z)-14a-((cyclopropylsulfonyl)carbamoyl)-7-ethyl-2-((7-fluoro-4-methoxyisoquinolin-1-yl)oxy)-9-methyl-5,16-dioxo-1,2,3,5,6,7,8,9,10,11,13a,14,14a,15,16,16a-hexadecahydrocyclopropa[e]pyrrolo[1,2-a][1,4]diazacyclopentadecin-6-yl)carbamate]",0.1 to 0.5,1.01 to 5,–
"CC(C)Oc1cc2c(Cl)cccc2c(O[C@@H]2C[C@H]3C(=O)N[C@]4(C(=O)NS(=O)(=O)C5(C)CC5)C[C@H]4/C=C\CC[C@H](C)C[C@@H](C)[C@H](NC(=O)OC(C)(C)C(C)(F)F)C(=O)N3C2)n1 [Compound 1103, 3,3-difluoro-2-methylbutan-2-yl((2R,6S,7R,9S,13aS,14aR,16aS,Z)-2-((5-chloro-3-isopropoxyisoquinolin-1-yl)oxy)-7,9-dimethyl-14a-(((1-methylcyclopropyl)sulfonyl)carbamoyl)-5,16-dioxo-1,2,3,5,6,7,8,9,10,11,13a,14,14a,15,16,16a-hexadecahydrocyclopropa[e]pyrrolo[1,2-a][1,4]diazacyclopentadecin-6-yl)carbamate]",–,–,"EC50 [1, 7]: < 5.46 nM; EC50 [2, 8]: 4.82 to 103 nM"
"CC[C@@H]1C[C@H](C)CC/C=C\[C@@H]2C[C@@]2(C(=O)NS(=O)(=O)C2CC2)NC(=O)[C@@H]2C[C@@H](Oc3cnnc4cc(OC)ccc34)CN2C(=O)[C@H]1NC(=O)OC(C)(C)C [Compound 4340, tert-butyl ((2R,6S,7R,9R,13aS,14aR,16aS,Z)-14a-((cyclopropylsulfonyl)carbamoyl)-7-ethyl-2-((7-methoxycinnolin-4-yl)oxy)-9-methyl-5,16-dioxo-1,2,3,5,6,7,8,9,10,11,13a,14,14a,15,16,16a-hexadecahydrocyclopropa[e]pyrrolo[1,2-a][1,4]diazacyclopentadecin-6-yl)carbamate]",5.01 to 35,5.01 to 35,–
"COc1ccc2c(O[C@@H]3C[C@H]4C(=O)N[C@]5(C(=O)NS(=O)(=O)C6(C)CC6)C[C@H]5/C=C\CC[C@@H](C)C[C@@H](C)[C@H](NC(=O)OC(C)(C)C)C(=O)N4C3)cnnc2c1 [Compound 4319, tert-butyl ((2R,6S,7R,9R,13aS,14aR,16aS,Z)-2-((7-methoxycinnolin-4-yl)oxy)-7,9-dimethyl-14a-(((1-methylcyclopropyl)sulfonyl)carbamoyl)-5,16-dioxo-1,2,3,5,6,7,8,9,10,11,13a,14,14a,15,16,16a-hexadecahydrocyclopropa[e]pyrrolo[1,2-a][1,4]diazacyclopentadecin-6-yl)carbamate]",35 to 620,5.01 to 35,–
"CCOc1ccc2c(O[C@@H]3C[C@H]4C(=O)N[C@]5(C(=O)NS(=O)(=O)C6(C)CC6)C[C@H]5/C=C\CC[C@@H](C)C[C@@H](CC)[C@H](NC(=O)OC(C)(C)C(F)(F)F)C(=O)N4C3)nccc2c1 [Compound 5369, 1,1,1-trifluoro-2-methylpropan-2-yl((2R,6S,7R,9R,13aS,14aR,16aS,Z)-2-((6-ethoxyisoquinolin-1-yl)oxy)-7-ethyl-9-methyl-14a-(((1-methylcyclopropyl)sulfonyl)carbamoyl)-5,16-dioxo-1,2,3,5,6,7,8,9,10,11,13a,14,14a,15,16,16a-hexadecahydrocyclopropa[e]pyrrolo[1,2-a][1,4]diazacyclopentadecin-6-yl)carbamate]",1.01 to 5,1.01 to 5,–
CCOc1ccc2ncc(O[C@@H]3C[C@H]4C(=O)N[C@]5(C(=O)NS(=O)(=O)C6(C)CC6)C[C@H]5/C=C\CC[C@@H](C)C[C@@H](CC)[C@H](NC(=O)OC(C)(C)C(F)(F)F)C(=O)N4C3)cc2c1 [Compound 4314],–,–,"EC50 [1, 3]: 1.01 to 5 nM; EC50 [2, 4]: 1.01 to 5 nM"
CC[C@@H]1C[C@H](C)CC/C=C\[C@@H]2C[C@@]2(C(=O)NS(=O)(=O)C2(C)CC2)NC(=O)[C@@H]2C[C@@H](Oc3cnnc4cc(OC)ccc34)CN2C(=O)[C@H]1NC(=O)OC(C)(C)C(F)(F)F [Compound 4320],–,–,"EC50 ([1]; GETYPE1B, HCV genotype 1b replicon luciferase, read-out: LE_1b (EC50)): 21.9 nM; EC50 [1, 3]: 5.01 to 35 nM; EC50 ([2]; GETYPE1A, HCV genotype 1a replicon luciferase, read-out: LE_1a (EC50)): 15 nM; EC50 [2, 4]: 5.01 to 35 nM"
"COc1ccc2c(O[C@@H]3C[C@H]4C(=O)N[C@]5(C(=O)NS(=O)(=O)C6(CF)CC6)C[C@H]5/C=C\CC[C@@H](C)C[C@@H](C)[C@H](NC(=O)OC(C)(C)C)C(=O)N4C3)nc(-c3ccc(OC(C)C)cc3)cc2c1 [Compound 4167, tert-butyl (2R,6S,7R,9R,13aS,14aR,16aS,Z)-14a-(1-(fluoromethyl)cyclopropylsulfonylcarbamoyl)-2-(3-(4-isopropoxyphenyl)-6-methoxyisoquinolin-1-yloxy)-7,9-dimethyl-5,16-dioxo-1,2,3,5,6,7,8,9,10,11,13a,14,14a,15,16,16a-hexadecahydrocyclopropa[e]pyrrolo[1,2-a][1,4]diazacyclopentadecin-6-ylcarbamate]",< 5.46,< 5.46,–
"COc1ccc2c(O[C@@H]3C[C@H]4C(=O)N[C@]5(C(=O)NS(=O)(=O)C6CC6)C[C@H]5/C=C\CC[C@@H](C)C[C@@H](C)[C@H](NC(=O)OC(C)(C)C(F)(F)F)C(=O)N4C3)nc(-c3ccc(OC(C)C)nc3)cc2c1 [Compound 5215, 1,1,1-trifluoro-2-methylpropan-2-yl((2R,6S,7R,9R,13aS,14aR,16aS,Z)-14a-((cyclopropylsulfonyl)carbamoyl)-2-((3-(6-isopropoxypyridin-3-yl)-6-methoxyisoquinolin-1-yl)oxy)-7,9-dimethyl-5,16-dioxo-1,2,3,5,6,7,8,9,10,11,13a,14,14a,15,16,16a-hexadecahydrocyclopropa[e]pyrrolo[1,2-a][1,4]diazacyclopentadecin-6-yl)carbamate]",< 5.46,< 5.46,–
"COc1ccc2c(O[C@@H]3C[C@H]4C(=O)N[C@]5(C(=O)NS(=O)(=O)C6(CF)CC6)C[C@H]5/C=C\CC[C@H](C)C[C@@H](C)[C@H](NC(=O)OC(C)(C)C)C(=O)N4C3)nc(N(C)C)cc2c1 [Compound 3122, tert-butyl ((2R,6S,7R,9S,13aS,14aR,16aS,Z)-2-((3-(dimethylamino)-6-methoxyisoquinolin-1-yl)oxy)-14a-(((1-(fluoromethyl)cyclopropyl)sulfonyl)carbamoyl)-7,9-dimethyl-5,16-dioxo-1,2,3,5,6,7,8,9,10,11,13a,14,14a,15,16,16a-hexadecahydrocyclopropa[e]pyrrolo[1,2-a][1,4]diazacyclopentadecin-6-yl)carbamate]",–,–,"EC50 [1, 7]: 4.82 to 103 nM; EC50 [2, 8]: 4.82 to 103 nM"
[2H]C([2H])([2H])C(OC(=O)N[C@@H]1C(=O)N2C[C@H](Oc3nnc(OC)c4ccccc34)C[C@H]2C(=O)N[C@]2(C(=O)NS(=O)(=O)C3(C)CC3)C[C@H]2/C=C\CC[C@@H](C)C[C@H]1C)(C([2H])([2H])[2H])C(F)(F)F [Compound 5010],< 5.46,< 5.46,–
CCOc1cnc(O[C@@H]2C[C@H]3C(=O)N[C@]4(C(=O)NS(=O)(=O)C5(C)CC5)C[C@H]4/C=C\CC[C@@H](C)C[C@@H](CC)[C@H](NC(=O)OC(C)(C)C(F)(F)F)C(=O)N3C2)c2ccc(OC)cc12 [Compound 4227],–,–,"EC50 [1, 3]: < 5.46 nM; EC50 [2, 4]: < 5.46 nM"
"CCC(C)(C)OC(=O)N[C@@H]1C(=O)N2C[C@H](Oc3ncc(OC)c4ccccc34)C[C@H]2C(=O)N[C@]2(C(=O)NS(=O)(=O)C3(CF)CC3)C[C@H]2/C=C\CC[C@@H](C)C[C@H]1C [Compound 1044, tert-pentyl ((2R,6S,7R,9R,13aS,14aR,16aS,Z)-14a-(((1-(fluoromethyl)cyclopropyl)sulfonyl)carbamoyl)-2-((4-methoxyisoquinolin-1-yl)oxy)-7,9-dimethyl-5,16-dioxo-1,2,3,5,6,7,8,9,10,11,13a,14,14a,15,16,16a-hexadecahydrocyclopropa[e]pyrrolo[1,2-a][1,4]diazacyclopentadecin-6-yl)carbamate]",–,–,"EC50 [1, 7]: < 5.46 nM; EC50 [2, 8]: < 5.46 nM"
"CCOc1nnc(O[C@@H]2C[C@H]3C(=O)N[C@]4(C(=O)NS(=O)(=O)C5CC5)C[C@H]4/C=C\CC[C@H](C)C[C@@H](C)[C@H](NC(=O)OC(C)(C)C(F)(F)F)C(=O)N3C2)c2ccccc12 [Compound 5036, 1,1,1-trifluoro-2-methylpropan-2-yl((2R,6S,7R,9S,13aS,14aR,16aS,Z)-14a-((cyclopropylsulfonyl)carbamoyl)-2-((4-ethoxyphthalazin-1-yl)oxy)-7,9-dimethyl-5,16-dioxo-1,2,3,5,6,7,8,9,10,11,13a,14,14a,15,16,16a-hexadecahydrocyclopropa[e]pyrrolo[1,2-a][1,4]diazacyclopentadecin-6-yl)carbamate]",4.82 to 103,4.82 to 103,–
